Columns and labels:
Homo sapiens [1] = species on record: Homo sapiens; assay: Binding affinity to human beta amyloid protein 1-28 from Alzheimers disease patient
Homo sapiens [2] = species on record: Homo sapiens; assay: Binding affinity to human beta amyloid protein 1-40 from Alzheimers disease patient

Compound: Cc1ccc2c(c1)sc(-c1ccc(N(C)C)cc1)[n+]2C
- Kb (Homo sapiens [1]): 1.85 10^6/M
- Kb (Homo sapiens [2]): 0.5 10^6/M

Source: ChEMBL document CHEMBL1143231, “Specific fluorescent detection of fibrillar alpha-synuclein using mono- and trimethine cyanine dyes” (Bioorg Med Chem, 2008)
